In patent US6852696B2, “Inhibitors of glycosaminoglycans” (The University of Texas System, priority 1999, dated 2005):

Assays:
[1] = test system: DC-associated HA; experiment: Binding of biotinylated peptide to DC surfaces; conditions: biotinylated form
Method: FIGS. 8B-D. Synthesis and surface expression of HA by DC. (B) XS106 DC were labeled with ^3H-glucosamine and then examined for the incorporation of hyaluronidase-sensitive radioactivities (means+/−s.e.m.; n=5) into the indicated subcellular fractions. (C) XS106 DC were incubated with biotinylated Pep-1 or RP and then with PE-conjugated streptavidin (filed histograms) (Mummert et al. J. Exp. Med. 192:769-779, 2000) or bovine testis hyaluronidase. Baseline staining levels with PE-streptavidin alone are shown with open histograms. (D) The indicated DC preparations were examined for binding of biotinylated Pep-1 (filled) and RP (open). Peptide binding to splenic DC and bone marrow-DC was examined within the CD11c^+ populations.

[2] = systemic, local, or topical administration; co-pending application; cited from earlier work
[3] = test system: HA; conditions: co-pending application 60/126,475; cited from earlier work
[4] = test system: HA; experiment: Adhesion of 35S-labeled B16-F10 melanoma cells to HA-coated plates; format: cell-based, mouse
Method: Three different Pep-1 derivatives were compared for their biological activities at the same concentration in terms of the molarity (150 μM) of the 16-mer Pep-1 peptide sequence. […] Data shown are the means+/−S.D. of % binding from quadruplicate samples. Asterisks indicate statistically significant differences (**p<0.01 by two-tailed Student's t-test).
FIGS. 9A-G. DC-associated HA and DC-dependent T cell proliferation. (A) DO11.10 T cells were cultured with y-irradiated splenic DC and/or OVA323-339 (2 μg/ml) in the presence of intact bPG (250 μg/ml), heat-denatured bPG, or PBS alone. Data shown are the means+/−s.d. (n=3) of ^3H-thymidine uptake. (B) DO11.10 T cells were cultured with the indicated numbers of splenic DC and OVA323-339 in the presence of Pep-1 (300 μM) (open circles), RP (closed circles), or PBS alone (squares). (C) Pep-1 (open circles) or PEG-conjugated Pep-1 (open triangles) were compared at the indicated concentrations (in terms of the molarity of the 12-mer Pep-1 sequence) for their abilities to inhibit the adhesion of ^35S-labeled B16 melanoma cells onto the HA-coated plates (Mummert et al. J. Exp. Med. 192:769-779, 2000). […] Statistically significant differences assessed by a two-tailed Student's t-test for comparing two groups or by analysis of variance (ANOVA) followed by LSD for multiple comparisons are indicated by asterisks (*P<0.05, **P<0.01).

[5] = test system: HA; conditions: co-pending application 60/126,475; cited from earlier work; remark: listed apart in the source
[6] = test system: B16-F10 melanoma cells; experiment: In vitro growth of B16-F10 melanoma cells (3H-thymidine uptake); format: cell-based, mouse; conditions: 3H-thymidine uptake at 24 hr
Method: (§1) FIGS. 4A-C. Impact of Pep-1 on lung metastasis of melanoma. (FIG. 4A) B16-F10 melanoma cells were suspended (4×10^5 cells/ml) in PBS containing Pep-1 monomer (2 or 3 mg/ml) (circles) or 2% DMSO alone (triangles). C57BL/6 mice received i.v. injection of these cell suspensions (500 μl/animal) and were examined for survival. Data shown are the cumulative survival curves from four independent experiments (n=37 for Pep-1 and n=20 for PBS control). […] (FIG. 4B) B16-F10 melanoma cells (1×10^5 cells/animal) were s.c. injected into the back of C57BL/6 mice. Pep-1 or RP (40 μg/injection) was injected locally into the tumor inoculation sites 0. 3. and 6 days after tumor injection. Data shown are the means+/−s.e.m. (n=10) of tumor sizes and tumor weights measured 10 days after tumor inoculation. (FIG. 4C) B16-F10 melanoma cells (2×10^5 cells/well) were cultured in the presence of the indicated concentrations of Pep-1 (closed circles) or PR (open circles). Data shown are the means+/−s.e.m.(n=3) of ^3H-thymidine uptake at 24 hr.

[7] = test system: B16-F10 melanoma cells; experiment: Experimentally induced lung metastasis of i.v. infused B16-F10 melanoma cells; format: in vivo, C57BL/6 mice; conditions: simultaneous i.v. injection with B16-F10 cells
Method: as §1
In the model, melanoma cells and Pep-1 (or random peptide control or PBS alone) were injected together intravenously into syngeneic C57BL/6 mice and lung metastasis was examined macroscopically and by following-up the survival of mice. […] The inventors will also examine the prophylactic and therapeutic potentials of multimeric Pep-1 formulations and other chemically modified Pep-1 derivatives using this animal model of melanoma metastasis.

## GAHWQFNALTVR [Pep-1]
[1]
  binding to other DC preparations (XS52 DC, splenic DC, bone marrow-derived DC): bound to all other tested DC preparations
  binding to surfaces of XS106 DC: bound to the surfaces of XS106 DC
[1]; hyaluronidase pretreatment of DC
  binding to DC after hyaluronidase pretreatment: abolished almost completely
[2]
  inhibition of contact hypersensitivity responses: inhibited the expression of contact hypersensitivity responses
[3]
  binding to HA: specific binding to soluble, immobilized, and cell-associated forms of HA
[4]
  blocking of B16-F10 adhesion to HA-coated plates: blocked efficiently
[4]; 150 μM in terms of molarity of the Pep-1 peptide sequence
  inhibition of HA-mediated cell adhesion: only modest inhibition
[5]
  inhibition of leukocyte adhesion to HA substrates: inhibited leukocyte adhesion to HA substrates almost completely
[6]
  effect on in vitro growth of B16-F10 melanoma cells: no apparent effects
[7]
  survival of recipient animals: prolonged the survival of recipient animals significantly
[7]; listed as Pep-1 monomer
  survival of recipient animals: Statistically significant difference (p<0.01 by the log-rank test)
[7]; vs RP control
  extent of lung metastasis: reduced the extent of lung metastasis significantly
